Test results published in PubChem BioAssay AID463074 (Broad Institute, 2010).
The source made the active and inactive calls.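 The calls were made as follows: active = AC50 no more than tenfold above the top dose tested, or full inhibition at every dose with a flat fit (cut at about 19 µM in these data); inconclusive = flat curve fit with inhibition between 30% and 70%, or poor fit; inactive = AC50 more than tenfold above the top dose tested.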

System: HMLE_sh_eGFP viability, CellTiter-Glo luminescence, 72 h
Experiment: viability loss of HMLE_sh_eGFP cells – cell-based, luminescence, counter-screen for HMLE_sh_ECad selective toxicity project, dose response (AID 463074);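 also: counterscreen control line to flag general toxicity for the HMLE_sh_ECad screen; potency for loss of viability as luminescence drops below DMSO wells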

SMILES | AC50
CCC(=O)NC(=S)Nc1cccc(Cl)c1N1CCCCC1 | 9.96 µM
CCCc1nc(NC2CCCCC2)c(C#N)c2c1COC(C)(C)C2 | 7.68 µM
COc1ccc2sc(-c3ccc(SC)cc3)c(C#CCO)c2c1 | 8.45 µM
Cc1ccc2nc(Cl)c3cc(C(=O)N(CCN(C)C)Cc4ccco4)sc3c2c1 | 3.53 µM
COc1ccc(-c2sc3ccccc3c2/C=C/c2ccncc2)cc1 | 6.68 µM
C=C(C)COc1ccc(-c2n[nH]c(C)c2-c2ccc(Br)cc2)c(O)c1 | 3.25 µM
CCCCCc1nc2c(c(=O)c3ccccc3n2C)c(=O)n1C1CCCCCC1 | 2.97 µM
CC(C)(C)OC(=O)NCc1ccc(NC(=O)c2nc[nH]c2C(=O)NCCCCNC(=O)c2[nH]cnc2C(=O)Nc2ccc(CNC(=O)OC(C)(C)C)cc2)cc1 | 2.15 µM
O=C(Nc1ccc(Oc2c(F)c(F)c(F)c(F)c2F)cc1)OC1CCN2Cc3ccccc3N=C12 (configuration not stated) | 1.21 µM
COc1ccc(C(=O)/C=C2/C(=O)Nc3ccccc32)cc1 | 6.73 µM
CCN(CC)c1ccc(C(=O)OCc2cc(=O)oc3cc(O)ccc23)cc1 | 16.2 µM
Cc1cc(SCC(=O)c2cccs2)n2nc(C)c(-c3ccc(Cl)cc3)c2n1 | 15.5 µM
COc1ccc(-c2sc3ccccc3c2-c2ccc(OCCN3CCCCC3)cc2)cc1 | 1.4 µM
FC(F)(F)c1ccc(-c2noc(CN3CCCN(C4CCCCC4)CC3)n2)cc1 | 7.39 µM
Cc1ccc(NS(=O)(=O)c2cc3c4c(cccc4c2)C(=O)NC3=O)cc1C | 6.49 µM
COc1cccc(-c2ccc(C#N)c(OC(=O)c3c(Cl)cccc3Cl)n2)c1 | 4.45 µM
O=c1nc(/C=C/c2ccc(Cl)cc2Cl)cc(C(F)(F)F)[nH]1 | 1.55 µM
COC(=O)c1cc(=O)n(Cc2ccc(F)cc2)c(=Nc2ccccc2)s1 | 5.87 µM
CC/C(=N/NC(=O)c1ccccc1O)c1c(C)[nH]n(-c2ccccc2)c1=O | 5.25 µM
Cc1oc2c(c1C(=O)N1CCC(C)CC1)C(=O)c1ccccc1C2=O | 7.99 µM
Cc1cc(SCC(=O)N/N=C/c2ccc(O)cc2O)c(C)cc1Br | 4.42 µM
COc1cccc(/C=N/Nc2ncc(C(F)(F)F)cc2Cl)c1O | 0.665 µM

SMILES | AC50
Cc1cc(C)nc(NC(=O)/C=C/c2ccc3c(c2)OCO3)c1 | 2.8 µM
CC1(C)C=Cc2c(ccc3c2OC[C@H](c2ccc(O)cc2O)C3)O1 | 4.43 µM
N#C/C(=C\c1c[nH]c2ccc(Br)cc12)c1ccccn1 | 10.3 µM
CCOC(=O)Nc1ccc(Cc2ccncc2)cc1 | > 19.5 µM (inactive)
COc1ccc(-c2cc(-c3nc4ccccn4c3NCc3ccccc3)ccc2OC)cc1 | 1.96 µM
COc1ccc2cc(C(=O)N/N=C/c3sc4ccccc4c3O)ccc2c1 | 1.8 µM
CC(C)=CCCC1(C)C=Cc2c(c(C)cc3c2[nH]c2cc(O)ccc23)O1 (configuration not stated) | 6.29 µM
Cc1ccc(-c2nc(NCc3ccco3)c3ccccc3n2)cc1 | 12.4 µM
CCCCCCC(C)(C)c1ccc([C@@H]2C[C@H](O)CC[C@H]2CCCO)c(O)c1 | 3.5 µM
CC(C)c1ccc(NC(=O)C(c2ccccc2)N(C)C(=O)CCc2c[nH]c3ccccc23)cc1 (configuration not stated) | 7.92 µM
CN(C)N1C(N)=C(C#N)C(c2cccc3ccccc23)C2=C1CC(c1ccccc1)CC2=O (configuration not stated) | 1.02 µM
COc1ccc(C(c2c[nH]c3ccccc23)c2c[nH]c3ccccc23)cc1O | 4.62 µM
O=C(N/N=C/c1ccc[nH]1)c1sc2ccccc2c1Cl | 13.4 µM
CCCCC(=O)NC(c1ccco1)c1cc(Cl)c2cccnc2c1O (configuration not stated) | 5.79 µM
COc1cc(/C=C2/CCC/C(=C\c3cc(O)c(OC)c(Cl)c3)C2=O)cc(Cl)c1O | 0.768 µM
CC(NCc1ccc(OCc2ccc(Cl)cc2)cc1)C(O)c1ccccc1 (configuration not stated) | 3.57 µM
Cc1ccc(Nc2nc(N)c([N+](=O)[O-])c(NCc3ccco3)n2)cc1C | 7.19 µM
C[C@@H]1CCC(=O)N(CC[C@H](Sc2ccc(Br)cc2)c2ccccc2)CC1 | 5.66 µM
CC(C)CCn1c(N)c(C(=O)NCc2cccs2)c2nc3ccccc3nc21 | 7.25 µM
CCCCCCSc1cccc(-c2nc3ccccn3c2NCc2ccccc2)c1 | 5.27 µM
CCOC(=O)C1=C(CSc2nc3ccccc3s2)NC(=O)NC1c1ccc(OC)cc1 (configuration not stated) | 10.8 µM
COC(=O)c1ccc(/C=C/c2c(-c3ccc(OC)cc3)oc3ccccc23)cc1 | 5.95 µM

SMILES | AC50
Cc1ccc(-c2nnc(N3CCC(C)CC3)c3ccccc23)cc1C | 4.3 µM
N#Cc1c(-c2ccccc2)cc(-c2ccccc2)nc1SCCC(=O)O | 2.41 µM
Fc1ccccc1COc1ccc(-c2nnn(Cc3ccccc3F)n2)cc1 | 4.81 µM
Cc1ccc2c(c1)c1ncn(CCC3=CCCCC3)c(=O)c1n2C | 1.09 µM
O=C(N/N=C/c1ccc(O)cc1O)/C(=C/c1ccccc1)CCO | 7.22 µM
C[C@H]1CCC/C=C/[C@@H]2C[C@H](O)C[C@H]2[C@H](O)/C=C/C(=O)O1 | < 0.16 µM
CC(C)(C)c1nn(-c2ccccc2)c2[nH]c(=O)c(C=O)cc12 | 8.18 µM
Cc1ccccc1N=C(NOCc1ccc(Cl)cc1Cl)c1nonc1N | 3.81 µM
Cc1ccccc1N=C1SC(CC(=O)Nc2ccc3ccccc3c2)C(=O)N1Cc1ccccn1 (configuration not stated) | 6.02 µM
CCCc1nc2ccccc2c(C(=O)OCC(=O)N2CCc3ccccc32)c1CC | 3.97 µM
COc1cc2nc(Nc3ccc(C)c(Cl)c3)nc(N)c2cc1OC | 6.97 µM
O=Cc1cc2ccccc2nc1SCc1ccc(Cl)c(Cl)c1 | 6.37 µM
COc1ccc(-c2nn(-c3ccccc3)cc2/C=N/N2C(=O)CSC2=S)cc1 | 3.97 µM
Cc1nn(-c2ccccc2)c(C)c1/C=N/n1c(-c2ccc(C(C)(C)C)cc2)n[nH]c1=S | 6.74 µM
COc1ccc(-c2sc3ccccc3c2-c2ccc(O)cc2)cc1 | 6.43 µM
O=C(NC(=S)Nc1cccc(Cl)c1N1CCCCC1)c1ccco1 | 3.81 µM
Cc1cccc(-c2oc3ccccc3c2C#CCCO)c1 | 10.1 µM
O=C(Nc1ccc2c(c1)OCO2)c1ccc(COc2ccc3c(c2)CCC3)o1 | 6.25 µM
COc1ccc(CCN2C(=S)N(C)C(=O)C2CC(=O)Nc2ccc(OC)cc2)cc1 (configuration not stated) | 17.8 µM
C=CCn1c(CNc2ccc(C)cc2)nnc1SCC(=O)N/N=C/c1ccc(O)cc1O | 2.97 µM
O=C(Oc1ccc(Br)cc1C(=O)/C=C/c1ccccc1F)c1ccco1 | 4.19 µM
CCCCCCOc1ccc(OC(=O)c2ccncc2)cc1 | 5.43 µM

SMILES | AC50
CC(C)C[C@@H](CO)N(Cc1ccccc1)S(=O)(=O)N(Cc1ccccc1)[C@@H](CO)CC(C)C | 3.87 µM
CCCCCCSc1cccc(-c2nc3ccc(C)cn3c2NCc2ccccc2)c1 | 3.37 µM
CN(C)CCNC(=O)c1sc2nc(-c3ccccc3)cc(C(F)(F)F)c2c1N | 5.23 µM
CC(/C=N/NC(=O)c1cc(-c2ccc(C)s2)[nH]n1)=C\c1ccccc1 | 4.35 µM
CC(C)(c1ccccc1)c1ccc(OCCCN2CCNCC2)cc1 | 0.745 µM
CN(C)CCNC(=O)/C(=C/c1ccc(-c2ccc(Cl)cc2Cl)o1)NC(=O)c1ccccc1 | 4.78 µM
COc1ccc(OC)c(-c2csc(N(CC3CCCO3)C(=O)C3CCCCC3)n2)c1 (configuration not stated) | 7.05 µM
Oc1ccc(-c2csc(Nc3ccccn3)n2)c(O)c1 | 3.93 µM
CC(=O)c1ccc(-c2ccc([C@H]3[C@H]4C=CC[C@@H](C)[C@@H]4C(=O)N3Cc3ccccc3)c(F)c2)cc1 | 6.13 µM
CN(CC(O)CON=C1c2ccccc2-c2ccccc21)S(=O)(=O)c1ccc(Br)cc1 (configuration not stated) | 4.4 µM
CN1CCN(c2ccccc2NC(=O)c2ccc(-c3ccc(Cl)cc3Cl)o2)CC1 | 6.57 µM
COC(=O)c1cccc(Nc2cc(C)nc(-c3ccccc3O)n2)c1 | 8.82 µM
CCn1c(N2CCN(S(=O)(=O)c3ccc(F)cc3)CC2)nc2ccccc21 | > 19.5 µM (inactive)
Cc1ccc(C(=O)ONc2ccc(N=NC(=O)c3ccccc3O)cc2)cc1 | 3.56 µM
C[C@@H]1O[C@@H](O[C@H]2C[C@@H](O)[C@]3(CO)[C@H]4[C@H](O)C[C@]5(C)[C@@H](C6COC(=O)C6)CC[C@]5(O)[C@@H]4CC[C@]3(O)C2)[C@H](O)[C@H](O)[C@H]1O (some centres not stated) | 0.74 µM
Oc1ccc(/C=N/Nc2ncc(Br)cn2)c(O)c1 | 5.8 µM
C(=N\Nc1ncnc2sc3c(c12)CCC3)/c1cccs1 | 7.4 µM
O=[N+]([O-])c1cccc(-c2csc(N/N=C/c3cccc(O)c3)n2)c1 | 3.7 µM
CCc1nc(N2CCC(C)CC2)c2oc3ccccc3c2n1 | 7.06 µM
CC(C)(C)C1CCC(CN2C(Nc3ccccc3)=NC[C@@H]2Cc2ccccc2)CC1 (some centres not stated) | 6.54 µM
CCOC(=O)c1c(CSc2ccc(C)cc2)oc2ccc(O)cc12 | 5.05 µM
O=C(Nc1cccc(C(F)(F)F)c1)Nc1ccc(N2CCCC2)c(S(=O)(=O)Nc2ccccc2Cl)c1 | 1.33 µM

SMILES | AC50
CCOC(=O)/C(=N/Nc1ccccc1)c1csc(Nc2ccccc2)n1 | 3.69 µM
CCc1ccccc1Nc1nn2c(=O)c3ccc(C(=O)NCc4ccccn4)cc3nc2s1 | < 0.16 µM
O=c1c(Cl)c(NCc2ccccc2)cnn1C12CC3CC(CC(C3)C1)C2 | 3.19 µM
COc1ccc(NC(=O)c2cc3ccccc3cc2O)cc1 | 8.3 µM
CCCCCCCCCCS(=O)(=O)N/N=C/c1ccc([N+](=O)[O-])cc1 | 12.9 µM
Nc1ncnc2c1c(-c1ccc(Oc3ccccc3)cc1)cn2C1CCCC1 | 1.7 µM
COc1ccc(C(=O)Nc2ccc(OCC(F)(F)C(F)F)c(C(F)(F)F)c2)cc1OC | 5.48 µM
O=c1cc(-c2ccc(O)cc2)oc2ccc3ccccc3c12 | 7.19 µM
COc1cc(C[C@H](C)[C@H](C)Cc2ccc3c(c2)OCO3)ccc1O | 6.66 µM
CSc1ccc(C2=CC(=O)C[C@H](c3ccc(Cl)cc3)C2)cc1 | 9.27 µM
COc1ccccc1NC(=O)c1ccc(S(=O)(=O)N2CCCC(C)C2)cc1 (configuration not stated) | > 19.5 µM (inactive)
COC(=O)c1ccc(COc2ccccc2/C=C(\C#N)C(=O)Nc2c(C)cccc2C)cc1 | 2.86 µM
Fc1ccc(CSc2nc3ccccc3[nH]2)c2ccccc12 | 5.51 µM
C=C(CC[C@@H](O)C(C)(C)O)[C@H]1CC[C@]2(C)[C@@H]1CCC1[C@@]3(C)CC[C@H](O)C(C)(C)C3CC[C@]12C (some centres not stated) | 1.13 µM
Cn1nc(-c2ccc(Cl)cc2)c2cc(C(=O)NCCCN3CCOCC3)sc21 | 5.94 µM
N#C/C(=C\c1c(F)cccc1Cl)c1nn(-c2ccccc2)c(-n2cccc2)c1C#N | 1.71 µM
Cc1noc(C)c1CSc1nc2ccccc2nc1NS(=O)(=O)c1ccc(Cl)cc1 | 1.79 µM
CN(CC(=O)Nc1cccc(F)c1)C(=O)c1cn(-c2ccccc2)nc1-c1ccc(Cl)cc1 | 3.85 µM
CC1CCCN(c2ccc(C(=O)N3CCC4(CC3)OCCO4)cc2[N+](=O)[O-])C1 (configuration not stated) | 7.96 µM
